Measured values published in US20260022142A1, “MACROCYCLIC IMMUNOMODULATORS” (Bristol-Myers Squibb Company, priority 2022, published 2026).
Bridge positions count the residues as written; N and C are the ends. Square brackets hold non-standard residues; d marks the D form. Peptide text beside a SMILES is read from it. * marks the point of attachment. ξ: configuration not given here. Phe(3-CF3) = N[C@@H](Cc1cccc(C(F)(F)F)c1)C(=O)O; Phe(4-COOH) = N[C@@H](Cc1ccc(C(=O)O)cc1)C(=O)O; Bip = N[C@@H](Cc1ccc(-c2ccccc2)cc1)C(=O)O; NH(CH2)14COOH = O=C(O)CCCCCCCCCCCCCCN*; Phe(3-Me) = Cc1cccc(C[C@H](N)C(=O)O)c1; Val(3-OH) = CC(C)(O)[C@H](N)C(=O)O; Cha = N[C@@H](CC1CCCCC1)C(=O)O; Cit = NC(=O)NCCC[C@H](N)C(=O)O; Thr(3ξ) = CC(O)[C@H](N)C(=O)O; Carboxymethyl = O=C(O)C*; Orn = NCCC[C@H](N)C(=O)O; Aun = NCCCCCCCCCCC(=O)O; Dab = NCC[C@H](N)C(=O)O; Dap = NC[C@H](N)C(=O)O; AEEA = NCCOCCOCC(=O)O

Molecular target: T1, PD-1/PD-L1 interaction (PE-labeled human PD-L1-Ig binding to Jurkat cell line over-expressing human PD-1) (Homo sapiens, UniProt Q15116)
T1 construct: expressed in transfected cells; host or cells: Jurkat
T1 sequence (Q15116 25-288): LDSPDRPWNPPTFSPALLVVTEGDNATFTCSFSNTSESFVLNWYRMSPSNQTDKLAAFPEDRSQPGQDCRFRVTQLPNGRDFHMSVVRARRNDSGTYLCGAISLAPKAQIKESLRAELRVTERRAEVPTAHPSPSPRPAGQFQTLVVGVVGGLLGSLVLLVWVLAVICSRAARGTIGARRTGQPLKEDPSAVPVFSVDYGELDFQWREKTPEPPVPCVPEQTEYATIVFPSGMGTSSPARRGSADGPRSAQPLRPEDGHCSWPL
Assay: Jurkat-PD-1 Cell Binding High-Content Screening Assay (CBA)
Format: cell-based
Conditions: Jurkat cell line over-expressing human PD-1; PE-labeled PD-L1-Ig 20 nM final; read-out: Jurkat hPD1-PDL1 IC50
In short: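 First, compound is added to PD-1-expressing Jurkat cells in serum-containing DMEM and left 2 h at 37° C. Next, PE-conjugated PD-L1-Ig is introduced at 20 nM final concentration for 1 hour. Finally, cells are fixed in 4% paraformaldehyde with Hoechst 33342, washed and imaged.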

IC50 | Structure (SMILES)
10.7 nM | Cc1cccc(C[C@@H]2NC(=O)[C@H](CC(=O)O)NC(=O)[C@H](Cc3ccc(O)cc3)NC(=O)[C@H](CC(N)=O)NC(=O)CSC[C@@H](C(=O)NCCCCCCCCCCC(=O)O)NC(=O)[C@H](CCCNC(N)=O)NC(=O)[C@H](C(C)C)NC(=O)[C@H](CC3CCCCC3)NC(=O)[C@H](CCN)NC(=O)[C@@H](CC(C)C)NC(=O)[C@H](CCCN)NC(=O)[C@H](Cc3ccc(O)cc3)NC(=O)[C@H](Cc3ccc(-c4ccccc4)cc3)NC(=O)[C@H](C(C)C)NC2=O)c1 [Compound 3403] ({CH2CO}-NYD[Phe(3-Me)]V[Bip]Y[Orn][dL][Dab][Cha]V[Cit]C[Aun]-OH; thioether N-14)
73.9 nM | Cc1cccc(C[C@@H]2NC(=O)[C@H](CC(=O)O)NC(=O)[C@H](Cc3ccc(O)cc3)NC(=O)[C@H](CC(N)=O)NC(=O)CSC[C@@H](C(=O)N[C@@H](CCCCN)C(=O)NCCCCCCCCCCC(=O)O)NC(=O)[C@H](CCCN)NC(=O)[C@H](C(C)C)NC(=O)[C@H](CC(C)C)NC(=O)[C@H](CCN)NC(=O)[C@@H](CC(C)C)NC(=O)[C@H](CCCN)NC(=O)[C@H](CCCNC(N)=O)NC(=O)[C@H](Cc3ccc(-c4ccccc4)cc3)NC(=O)[C@H](C(C)C)NC2=O)c1 [Compound 2803] ({CH2CO}-NYD[Phe(3-Me)]V[Bip][Cit][Orn][dL][Dab]LV[Orn]CK[Aun]-OH; thioether N-14)
7.4 nM | Cc1cccc(C[C@@H]2NC(=O)[C@H](CC(=O)O)NC(=O)[C@H](Cc3ccc(OCC(=O)O)cc3)NC(=O)[C@H](CN)NC(=O)CSC[C@@H](C(=O)N[C@@H](C)C(=O)NCCOCCOCC(=O)NCCCCCCCCCCC(=O)O)NC(=O)[C@H]([C@@H](C)O)NC(=O)[C@H](C(C)C)NC(=O)[C@H](CC3CCCCC3)NC(=O)[C@H](CCN)NC(=O)[C@@H](CC(C)C)NC(=O)[C@H](CCCN)NC(=O)[C@H](CCCNC(N)=O)NC(=O)[C@H](Cc3ccc(-c4ccccc4)cc3)NC(=O)[C@H](C(C)C)NC2=O)c1 [Compound 1029] ({CH2CO}-[Dap]Y(Carboxymethyl)D[Phe(3-Me)]V[Bip][Cit][Orn][dL][Dab][Cha]VTCA[AEEA][Aun]-OH; thioether N-14)
348 nM | CC(C)C[C@H]1NC(=O)[C@H](Cc2cnc[nH]2)NC(=O)[C@H](Cc2ccc(OCC(=O)O)cc2)NC(=O)[C@H](Cc2ccc(-c3ccccc3)cc2)NC(=O)[C@H](Cc2ccc(C(=O)O)cc2)NC(=O)[C@H](Cc2cccc(C(F)(F)F)c2)NC(=O)[C@H](CC(=O)O)NC(=O)[C@H](Cc2ccc(OCC(=O)O)cc2)NC(=O)[C@H](C(C)O)NC(=O)CSC[C@@H](C(=O)N[C@@H](CCN)C(=O)NCCCCCCCCCCCCCCC(=O)O)NC(=O)[C@H](C(C)O)NC(=O)[C@H](C(C)(C)O)NC(=O)[C@H](CC2CCCCC2)NC(=O)[C@H](CCN)NC1=O (stereo partly drawn) [Compound 3861] ({CH2CO}-[Thr(3ξ)]Y(Carboxymethyl)D[Phe(3-CF3)][Phe(4-COOH)][Bip]Y(Carboxymethyl)H[dL][Dab][Cha][Val(3-OH)][Thr(3ξ)]C[Dab]-{NH(CH2)14COOH}; thioether N-14)
15.1 nM | Cc1cccc(C[C@@H]2NC(=O)[C@H](CC(=O)O)NC(=O)[C@H](Cc3ccc(OCC(=O)O)cc3)NC(=O)[C@H](CCCNC(=N)N)NC(=O)CSC[C@@H](C(=O)N[C@@H](CCCCN)C(=O)NCCCCCCCCCCC(=O)O)NC(=O)[C@H](C(C)O)NC(=O)[C@H](C(C)C)NC(=O)[C@H](CC3CCCCC3)NC(=O)[C@H](CCN)NC(=O)[C@@H](CC(C)C)NC(=O)[C@H](CCCN)NC(=O)[C@H](Cc3ccc(O)cc3)NC(=O)[C@H](Cc3ccc(-c4ccccc4)cc3)NC(=O)[C@H](C(C)C)NC2=O)c1 (stereo partly drawn) [Compound 3473] ({CH2CO}-RY(Carboxymethyl)D[Phe(3-Me)]V[Bip]Y[Orn][dL][Dab][Cha]V[Thr(3ξ)]CK[Aun]-OH; thioether N-14)
